According to EP3305781A1, “CHEMICAL SUBSTANCES WHICH INHIBIT THE ENZYMATIC ACTIVITY OF HUMAN KALLIKREIN-RELATED PEPTIDASE 6 (KLK6)” (Deutsches Krebsforschungszentrum, priority 2016, dated 2018):
Like-named read-outs stand apart in the source and are kept apart here.

Key:
[1] = NMR-based stability assay in cell culture medium; assay type: physicochemical; conditions: ~8 mM in DMSO-d6 diluted 1:3 with DMEM + 10% FCS; NMR at 37°C for 16 hours; compared with Example Compound 1; Figures 1-3
[2] = biological target: KLK6 (Homo sapiens, UniProt Q92876); assay: Biochemical inhibition assay, fluorogenic substrate FSR-AMC
Protocol: (§1) In a 384 well plate, 5 µL of eleven concentrations of inhibitor in 8% DMSO (serial dilution 2:1) and a blank were incubated with an equal amount of enzyme (KLK6, Thrombin, Trypsin or Factor Xa) diluted in 50 mM Tris pH 7.5, 150 mM NaCl, 1 mM EDTA, 0.05% Tween20 assay buffer for 30 minutes. […] Inhibition of the enzyme as a function of the inhibitor concentration was used to generate dose response curves, which allowed estimating IC50 values, according to the following equation in GraphPad Prism: y = ymin + (ymax−ymin)/(1+10^(((LogIC50−x)*HillSlope))) [formula]
(§2) Assay final concentrations: • KLK6: 5 nM • Trypsin: 0.88 ng/mL • Thrombin: 9.8·10^-5 NIH unit/mL • Factor Xa: 4 nM • FSR-AMC: 20 µM

[3] = biological target: Thrombin (Homo sapiens, UniProt P00734); assay: as above
Protocol: as §1, §2

[4] = biological target: Trypsin (Homo sapiens, UniProt P07477); assay: as above
Protocol: as §1, §2

[5] = biological target: Factor Xa (Homo sapiens, UniProt P00742); assay: as above
Sequence of Factor Xa (P00742 235-488 limits assumed): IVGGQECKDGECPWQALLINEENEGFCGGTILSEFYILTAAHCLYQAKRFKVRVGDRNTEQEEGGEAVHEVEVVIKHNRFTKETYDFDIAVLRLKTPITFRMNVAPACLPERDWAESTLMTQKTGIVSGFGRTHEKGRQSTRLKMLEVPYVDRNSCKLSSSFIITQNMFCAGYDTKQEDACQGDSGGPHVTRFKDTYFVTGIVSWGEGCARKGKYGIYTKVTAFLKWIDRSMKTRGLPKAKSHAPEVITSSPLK
Sequence of Factor Xa (P00742 41-179 partner limits assumed): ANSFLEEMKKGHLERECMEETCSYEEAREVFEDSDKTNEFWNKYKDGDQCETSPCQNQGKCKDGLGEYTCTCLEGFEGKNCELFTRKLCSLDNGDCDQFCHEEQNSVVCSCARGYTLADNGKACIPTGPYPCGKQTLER
Protocol: as §1, §2

[6] = read-out: KLK6 IC50, KLK6 5 nM (produced in insect cells), 30 min incubation with inhibitor, FSR-AMC 20 µM, Tris pH 7.5
[7] = read-out: Thrombin IC50, Thrombin 9.8·10^-5 NIH unit/mL, 30 min incubation with inhibitor, FSR-AMC 20 µM, Tris pH 7.5
[8] = read-out: Trypsin IC50, Trypsin 0.88 ng/mL, 30 min incubation with inhibitor, FSR-AMC 20 µM, Tris pH 7.5
[9] = read-out: Factor Xa IC50, Factor Xa 4 nM, 30 min incubation with inhibitor, FSR-AMC 20 µM, Tris pH 7.5

Structure (SMILES)	IC50 [2, 6] [µM]	IC50 [3, 7] [µM]	IC50 [4, 8] [µM]	IC50 [5, 9] [µM]	also measured
Cc1nn(-c2ccccc2)c(C)c1NC(=O)COC(=O)Cc1c(C)[nH]c2ccccc12 [Example Compound 38, 2-((3,5-dimethyl-1-phenyl-1H-pyrazol-4-yl)amino)-2-oxoethyl 2-(2-methyl-1H-indol-3-yl)acetate]					stability in cell culture medium (ester hydrolysis) [1]: totally enhanced
Cc1nn(-c2ccccc2)c(C)c1NC(=O)COC(=O)C(C)c1c(C)[nH]c2ccccc12 (stereo not shown) [Example Compound 81, 2-((3,5-dimethyl-1-phenyl-1H-pyrazol-4-yl)amino)-2-oxoethyl 2-(2-methyl-1H-indol-3-yl)propanoate]					stability in cell culture medium (ester hydrolysis) [1]: further stabilizing properties
Cc1nn(-c2ccccc2[N+](=O)[O-])c(C)c1NC(=O)COC(=O)Cn1c(C)cc2ccccc21 [compound 5, 2-((3,5-dimethyl-1-(2-nitrophenyl)-1H-pyrazol-4-yl)amino)-2-oxoethyl 2-(2-methyl-1H-indol-1-yl)acetate]					IC50 [2]: 0.172 µM; IC50 [3]: > 200 µM; IC50 [4]: 51 µM; IC50 [5]: 50 µM
Cc1ccc(-n2nc(C)c(NC(=O)COC(=O)Cn3c(C)cc4ccccc43)c2C)cc1 [compound 9, 2-((3,5-dimethyl-1-(p-tolyl)-1H-pyrazol-4-yl)amino)-2-oxoethyl 2-(2-methyl-1H-indol-1-yl)acetate]					IC50 [2]: 0.267 µM; IC50 [3]: 197 µM; IC50 [4]: 67.1 µM; IC50 [5]: > 200 µM

More lines, main results first:

IC50 [2, 6] [µM]	IC50 [3, 7] [µM]	IC50 [4, 8] [µM]	IC50 [5, 9] [µM]	Structure (SMILES)	also measured
17	> 200	> 200	> 200	Cc1nn(-c2ccccc2)c(C)c1NC(=O)COC(=O)Cc1cccc(N)c1 [compound 55]	
14.3	> 200	> 200	> 200	Cc1nn(-c2ccccc2)c(C)c1NC(=O)COC(=O)C(C)c1c[nH]c2ccccc12 (stereo not shown) [compound 83]	
4.72	> 200	144	> 200	Cc1nn(-c2ccccc2)c(C)c1NC(=O)COC(=O)Cn1c(C)c(C)c2ccccc21 [compound 15]	
